Reference: US10280170B2, “Substituted 4,5,6,7-tetrahydro-pyrazolo[1,5-a]pyrazine derivatives and 5,6,7,8-tetrahydro-4H-pyrazolo[1,5-a][1,4]diazepine derivatives as Ros1 inhibitors” (Janssen Pharmaceutica NV, priority 2014, dated 2019)
Read-outs that look alike come from different tables or passages of the source.

Key:
Ros1 enzyme = target: T1, Ros1 enzyme (Homo sapiens, UniProt P08922); assay: Ros1 enzymatic assay; assay type: biochemical
T1 construct: 0.5 μg/ml Ros1 enzyme
In short: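 A radiometric assay mixed enzyme mix (0.5 μg/ml human Ros1) with substrate mix (6 μg/ml biotinylated IRS-Tide, 20 μM ATP plus [33P]ATP), both in 50 mM Tris-HCl pH 7.5, 10 mM MgCl2, 1 mM EGTA, 0.01% Tween-20. The reaction ran 120 min at room temperature, was stopped with EDTA plus streptavidin imaging beads, and was read by LEADseeker imaging.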

[1] = target: T2, Ba/F3 cells containing Ros1 wild-type protein (Homo sapiens, UniProt P08922, cells depend on it, form not given); assay: Ba/F3-Ros1 cell proliferation assay, wild-type Ros1; assay type: cell-based, murine; conditions: without IL-3
T2 construct: The background only speaks of 'a number of different unrelated proteins' and names SLC34A2-ROS1 for HCC78 cells
T2 sequence (P08922 whole entry, stated change not applied): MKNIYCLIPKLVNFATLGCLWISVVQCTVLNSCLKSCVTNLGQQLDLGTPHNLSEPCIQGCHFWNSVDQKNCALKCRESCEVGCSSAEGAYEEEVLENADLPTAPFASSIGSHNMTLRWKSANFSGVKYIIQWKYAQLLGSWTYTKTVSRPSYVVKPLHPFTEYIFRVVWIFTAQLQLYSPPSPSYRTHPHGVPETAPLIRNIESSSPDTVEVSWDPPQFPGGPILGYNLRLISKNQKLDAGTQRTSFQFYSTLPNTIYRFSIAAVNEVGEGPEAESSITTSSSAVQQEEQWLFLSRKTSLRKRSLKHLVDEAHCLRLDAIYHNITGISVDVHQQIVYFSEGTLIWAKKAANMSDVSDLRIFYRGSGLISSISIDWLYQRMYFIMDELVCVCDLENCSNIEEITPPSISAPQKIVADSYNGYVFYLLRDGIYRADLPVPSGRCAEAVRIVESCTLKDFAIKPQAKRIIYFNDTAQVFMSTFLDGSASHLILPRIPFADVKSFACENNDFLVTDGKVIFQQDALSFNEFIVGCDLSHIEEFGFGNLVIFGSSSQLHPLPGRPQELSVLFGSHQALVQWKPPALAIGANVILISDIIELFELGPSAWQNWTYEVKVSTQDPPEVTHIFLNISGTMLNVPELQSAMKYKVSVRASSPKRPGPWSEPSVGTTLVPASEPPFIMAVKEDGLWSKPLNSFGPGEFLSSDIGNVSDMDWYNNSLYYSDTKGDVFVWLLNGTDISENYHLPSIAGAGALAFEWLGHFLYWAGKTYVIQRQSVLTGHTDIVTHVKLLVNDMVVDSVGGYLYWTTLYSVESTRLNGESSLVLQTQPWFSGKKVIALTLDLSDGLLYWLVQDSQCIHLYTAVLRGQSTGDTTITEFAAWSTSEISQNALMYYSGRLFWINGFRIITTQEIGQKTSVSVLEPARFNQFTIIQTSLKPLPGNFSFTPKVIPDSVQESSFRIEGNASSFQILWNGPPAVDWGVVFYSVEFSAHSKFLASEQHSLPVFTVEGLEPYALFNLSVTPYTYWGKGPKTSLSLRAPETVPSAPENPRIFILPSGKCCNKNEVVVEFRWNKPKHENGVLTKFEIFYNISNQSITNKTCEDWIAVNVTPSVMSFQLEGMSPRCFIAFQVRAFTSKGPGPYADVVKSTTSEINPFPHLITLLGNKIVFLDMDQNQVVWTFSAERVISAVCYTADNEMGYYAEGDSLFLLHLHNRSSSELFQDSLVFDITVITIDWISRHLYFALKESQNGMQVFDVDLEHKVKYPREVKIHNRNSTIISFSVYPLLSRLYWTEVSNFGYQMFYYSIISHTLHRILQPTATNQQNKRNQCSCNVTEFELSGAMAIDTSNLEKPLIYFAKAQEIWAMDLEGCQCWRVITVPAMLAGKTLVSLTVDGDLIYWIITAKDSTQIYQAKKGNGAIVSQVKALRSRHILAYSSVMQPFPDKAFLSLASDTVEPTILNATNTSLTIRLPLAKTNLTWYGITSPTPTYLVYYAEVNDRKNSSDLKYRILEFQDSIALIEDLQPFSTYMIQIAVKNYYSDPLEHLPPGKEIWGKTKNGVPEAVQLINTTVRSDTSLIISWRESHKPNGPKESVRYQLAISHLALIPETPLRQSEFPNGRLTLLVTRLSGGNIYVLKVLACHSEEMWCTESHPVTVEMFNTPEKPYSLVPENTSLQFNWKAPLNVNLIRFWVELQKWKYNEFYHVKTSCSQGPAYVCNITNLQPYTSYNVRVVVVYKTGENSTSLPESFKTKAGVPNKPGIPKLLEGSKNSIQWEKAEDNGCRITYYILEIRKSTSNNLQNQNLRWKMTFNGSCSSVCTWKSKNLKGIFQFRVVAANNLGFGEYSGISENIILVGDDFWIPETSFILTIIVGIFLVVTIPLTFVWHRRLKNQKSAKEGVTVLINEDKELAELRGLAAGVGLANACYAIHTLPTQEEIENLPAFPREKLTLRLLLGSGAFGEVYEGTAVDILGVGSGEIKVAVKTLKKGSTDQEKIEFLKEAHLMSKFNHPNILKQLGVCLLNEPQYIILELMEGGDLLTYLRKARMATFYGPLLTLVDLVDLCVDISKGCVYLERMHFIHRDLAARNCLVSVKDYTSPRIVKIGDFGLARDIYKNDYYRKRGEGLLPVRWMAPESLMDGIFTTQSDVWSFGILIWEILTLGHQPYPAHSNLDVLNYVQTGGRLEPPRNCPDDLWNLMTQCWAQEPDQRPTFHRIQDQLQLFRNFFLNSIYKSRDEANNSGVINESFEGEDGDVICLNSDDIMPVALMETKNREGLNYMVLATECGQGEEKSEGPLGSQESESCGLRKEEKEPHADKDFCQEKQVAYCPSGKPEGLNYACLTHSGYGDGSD
In short: (§1)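 Compounds dispensed from 100% DMSO; Ba/F3 cells carrying one of three Ros1 forms added at 20000/well in RPMI-1640 with 10% FBS. Plates kept 24 h at 37 °C under 5% CO2. Alamar Blue added, 4 h further incubation, fluorescence measured at 540/590 nm.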

[2] = system: HCC78 non-small cell lung cancer cells; assay: HCC78 cell proliferation assay; assay type: cell-based; conditions: for EC50: Homo sapiens, HCC78, 96 h, read-out: HCC-78 PROL pEC50 (converted)
In short: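 HCC78 NSCLC cells (~1000/well) in RPMI-1640 with 10% FBS were treated 24 h after seeding and exposed to compound for 4 days at 37 °C. Viability was read by MTT, with absorbance at 538 nm after DMSO/glycine solubilization.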

[3] = system: Ros pY2274 in HCC78 cells; assay: pROS1 immunofluorescence assay in HCC78 cells; assay type: cell-based; conditions: Homo sapiens; HCC78 cells, 4 hours, Ros pY2274 normalized to total Ros1; read-out: HCC78-pRos1 pIC50 (converted)
Procedure: pROS1 Immunofluorescence Assay in HCC78 Cells
Approximately 20000 HCC78 non-small cell lung cancer cells in 180 μl of cell culture medium (RPMI-1640, 10% FBS, 2 mM L-Glutamine, 10 mM Hepes, 1 mM sodium pyruvate, 4.5 g/L glucose, 1.5 g/L sodium bicarbonate, 25 μg/ml Gentamycin) were seeded in each well of a 96-well polystyrene, poly-D-lysine coated plate and incubated at 37° C. and 5% CO2. After 24 hours, compounds were diluted in cell culture medium from which 20 μl was added to the wells containing cells and incubated for 4 hours at 37° C. and 5% CO2. The medium was removed and the cells were fixed by adding 100 μl of 5% formaldehyde in TBS (tris-buffered saline) (50 mM Tris.HCl, pH 7.4, 150 mM NaCl) and incubating for 15 minutes at room temperature. The formaldehyde was removed and replaced with methanol for 10 minutes at room temperature, after which the cells were washed 3 times with TBS containing 1% Triton X-100 and incubated in Odyssee (Li-Cor) blocking buffer for 1 hour at room temperature. The cells were then incubated with the primary rabbit antibody directed against Ros pY2274 (cst-3078) diluted 1/200 in blocking buffer for 24 hours at room temperature. The cells were washed three times with TBS containing 0.1% Triton X-100 and incubated with a secondary anti-rabbit antibody conjugated to the fluorescent dye Alexafluor 680 in blocking buffer for 1 hour at room temperature. The cells were washed three times with TBS containing 0.1% Triton X-100 and left to dry before measuring RFUs (Relative Fluorescence Units) at 700 nm using a fluorescence imager.
The same experiment was performed using total Ros1 antibody (sc-6347) diluted 1/1000 instead of Ros1 pY2274 antibody and an anti-goat antibody conjugated to IRDye800cw as a secondary antibody. RFUs were measured at […]. The signals from total Ros1 detection were used to normalize the Ros1 pY2274 values.

[4] = system: Ba/F3 cells containing Ros1 wild-type protein + IL-3; assay: Ba/F3-Ros1 cell proliferation counter-screen, wild-type protein in the presence of 10 ng/ml murine IL-3; assay type: cell-based; conditions: Mus musculus, BaF3, 24 h, read-out: BaF3-ROS1 + IL3 pIC50 (converted)
In short: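 Ba/F3 cells expressing wild-type Ros1, 20000 per well in RPMI-1640 with 10% FBS, cultured with compounds for 24 h at 37 °C with 10 ng/ml murine IL-3. Alamar Blue (resazurin) then added for 4 h. Fluorescence read at ex 540/em 590 nm.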

[5] = target: Ba/F3 cells containing Ros1 with a mutation at the gatekeeper residue (L2026M) (Homo sapiens, UniProt P08922, L2026M, cells depend on it, form not given); assay: Ba/F3-Ros1 cell proliferation assay, L2026M gatekeeper mutant; assay type: cell-based, murine; conditions: without IL-3
Ba/F3 cells containing Ros1 with a mutation at the gatekeeper residue (L2026M), sequence (P08922 whole entry L2026M, form open): as the sequence (P08922 whole entry, stated change not applied) above, with L2026M counted along it
In short: as §1

[6] = Ros1 enzymatic assay, read-out: ROS1 pIC50 (converted)
[7] = counter-screen, wild-type, 10 ng/ml murine IL-3

T1 sequence (P08922 28-2347): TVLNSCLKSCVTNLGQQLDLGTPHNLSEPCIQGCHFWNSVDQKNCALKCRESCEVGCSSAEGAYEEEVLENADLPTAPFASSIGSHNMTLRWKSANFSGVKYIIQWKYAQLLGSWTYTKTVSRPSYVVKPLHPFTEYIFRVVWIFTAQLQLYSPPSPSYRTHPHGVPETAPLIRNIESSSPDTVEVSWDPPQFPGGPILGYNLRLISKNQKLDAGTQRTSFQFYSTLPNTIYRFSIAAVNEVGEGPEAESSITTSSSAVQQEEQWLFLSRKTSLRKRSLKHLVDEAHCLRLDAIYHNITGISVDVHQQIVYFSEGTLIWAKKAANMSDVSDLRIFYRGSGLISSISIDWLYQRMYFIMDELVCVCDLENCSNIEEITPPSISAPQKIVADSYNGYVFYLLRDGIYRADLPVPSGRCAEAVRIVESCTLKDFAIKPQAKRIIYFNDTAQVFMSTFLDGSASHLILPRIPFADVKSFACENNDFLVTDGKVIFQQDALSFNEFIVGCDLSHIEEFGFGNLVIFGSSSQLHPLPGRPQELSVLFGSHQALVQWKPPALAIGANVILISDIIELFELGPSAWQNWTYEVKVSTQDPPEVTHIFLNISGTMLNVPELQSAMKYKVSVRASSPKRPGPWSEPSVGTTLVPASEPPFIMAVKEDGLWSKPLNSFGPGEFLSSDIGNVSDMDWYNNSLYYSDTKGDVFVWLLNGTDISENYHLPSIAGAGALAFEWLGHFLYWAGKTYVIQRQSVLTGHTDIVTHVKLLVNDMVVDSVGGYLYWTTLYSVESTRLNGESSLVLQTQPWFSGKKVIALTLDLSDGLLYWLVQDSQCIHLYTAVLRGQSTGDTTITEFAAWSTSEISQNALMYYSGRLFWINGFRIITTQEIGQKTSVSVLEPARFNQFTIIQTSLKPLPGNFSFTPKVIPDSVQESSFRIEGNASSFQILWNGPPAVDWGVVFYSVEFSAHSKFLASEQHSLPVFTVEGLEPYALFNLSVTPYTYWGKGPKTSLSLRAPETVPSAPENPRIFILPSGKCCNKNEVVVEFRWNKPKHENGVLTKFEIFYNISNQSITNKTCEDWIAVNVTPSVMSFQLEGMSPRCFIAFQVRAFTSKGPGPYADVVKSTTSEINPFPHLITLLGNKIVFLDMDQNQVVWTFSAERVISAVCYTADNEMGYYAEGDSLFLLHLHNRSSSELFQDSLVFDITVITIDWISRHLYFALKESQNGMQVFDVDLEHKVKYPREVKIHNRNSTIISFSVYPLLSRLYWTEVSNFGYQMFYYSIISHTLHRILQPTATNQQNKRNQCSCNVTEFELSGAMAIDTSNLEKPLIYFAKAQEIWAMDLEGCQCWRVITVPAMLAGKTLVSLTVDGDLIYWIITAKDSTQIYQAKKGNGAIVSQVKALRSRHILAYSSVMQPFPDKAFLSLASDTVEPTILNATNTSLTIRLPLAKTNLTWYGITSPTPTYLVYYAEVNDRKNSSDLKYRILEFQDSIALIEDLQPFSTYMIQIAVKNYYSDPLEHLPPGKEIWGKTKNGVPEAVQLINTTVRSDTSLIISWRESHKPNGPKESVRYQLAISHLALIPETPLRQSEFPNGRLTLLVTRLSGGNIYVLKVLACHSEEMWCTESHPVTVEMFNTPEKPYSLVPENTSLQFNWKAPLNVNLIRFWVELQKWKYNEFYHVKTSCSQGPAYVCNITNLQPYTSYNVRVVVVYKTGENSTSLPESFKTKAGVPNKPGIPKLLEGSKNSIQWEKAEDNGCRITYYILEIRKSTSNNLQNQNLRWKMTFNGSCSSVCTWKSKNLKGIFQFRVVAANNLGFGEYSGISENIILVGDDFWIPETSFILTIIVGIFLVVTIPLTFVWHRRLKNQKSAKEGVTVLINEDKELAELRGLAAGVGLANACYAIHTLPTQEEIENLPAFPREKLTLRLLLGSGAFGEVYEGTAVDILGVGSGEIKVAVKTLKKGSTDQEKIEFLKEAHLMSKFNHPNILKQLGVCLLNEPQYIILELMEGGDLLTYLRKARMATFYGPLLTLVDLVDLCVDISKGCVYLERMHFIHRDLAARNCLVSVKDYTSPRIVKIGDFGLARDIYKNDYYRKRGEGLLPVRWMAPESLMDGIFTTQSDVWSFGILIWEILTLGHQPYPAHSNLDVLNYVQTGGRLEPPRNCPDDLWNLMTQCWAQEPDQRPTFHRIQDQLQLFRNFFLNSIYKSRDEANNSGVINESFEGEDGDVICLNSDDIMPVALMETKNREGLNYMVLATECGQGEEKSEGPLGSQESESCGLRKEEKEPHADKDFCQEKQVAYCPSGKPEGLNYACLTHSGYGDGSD

| Structure (SMILES) | IC50 (Ros1 enzyme; [6]) [nM] | BaF3-ROS1-IL3 pIC50 [1] | EC50 ([2]; HCC78 cells, 4 days, MTT) [nM] | IC50 [3] [nM] | CC50 [4, 7] [nM] | Ba/F3 Ros1 L2026M (-IL-3) pIC50 [5] | EC50 [2] [nM] | melting point [°C] | CC50 [4] [nM] | IC50 (Ros1 enzyme; ROS1 pIC50, Ros1 enzymatic assay) [nM] | HCC-78 PROL pEC50 ([2]; HCC78 cells, 4 days, MTT) |
| --- | --- | --- | --- | --- | --- | --- | --- | --- | --- | --- | --- |
| CC(C)c1ccc(COc2ccc(-c3c(-c4ccncc4)nn4c3CN(C(=O)CN(C)C)CC4)cc2)cc1 [Compound 181] | 794 | 5.7 | 2000 | 1260 | 5010 |  |  |  |  |  |  |
| CC(C)NC(=O)CN1CCn2nc(-c3ccncc3)c(-c3ccc(OCc4ccc(C(C)C)cc4)cc3)c2C1=O [Compound 65] | 100 | 7.2 |  |  |  | 6.7 | 316 | 159 | > 10000 |  |  |
| COCCOc1cc(COc2ccc(-c3c(-c4ccncc4)nn4c3C(=O)NCC4)cc2)ccc1C(C)C [Compound 90] | 79.4 | 7.2 |  |  |  | 7.4 | 158 | 209 | > 10000 |  |  |
| CC(C)c1ccc(COc2ccc(-c3c(-c4ccncc4Cl)nn4c3C(=O)NCC4)cc2)cc1 [Compound 154] | 100 | 6.9 |  |  |  | 7.1 | 316 | 207 | > 10000 |  |  |
| O=C1c2c(-c3ccc(OCc4ccc(C5CC5)cc4)cc3)c(-c3ccncc3)nn2CCN1CCO [Compound 129] | 63.1 | 7.4 |  |  |  | 7.0 | 100 | 194 | > 10000 |  |  |
| COc1cc(-c2c(-c3ccncc3)nn3c2C(=O)NCC3)cc(OC)c1OCc1ccc(C(C)C)cc1 [Compound 35] | 5010 | 5.7 |  |  |  | 5.8 | > 10000 | 192 | > 10000 |  |  |
| CC(C)c1ccc(COc2ccc(-c3c(-c4ccncc4)nn4c3C(=O)N(CC(=O)N(C)C)CC4)cc2)cc1 [Compound 64] | 79.4 | 7.1 |  |  |  | 6.6 | 631 | 199 | > 10000 |  |  |
| CC(C)c1ccc(COc2ccc(-c3c(-c4ccncc4)nn4c3C(=O)N(CCS(C)(=O)=O)CC4)cc2)cc1 [Compound 52] | 50.1 | 7.6 |  |  |  | 6.9 | 251 | 219 | > 10000 |  |  |
| O=C1c2c(-c3ccc(OCc4ccc(OC(F)(F)F)cc4)cc3)c(-c3ccncc3)nn2CCN1CCO [Compound 117] | 126 | 7.0 |  |  |  | 6.9 | 251 | 134 | > 10000 |  |  |
| CCOP(=O)(CCN1CCn2nc(-c3ccncc3)c(-c3ccc(OCc4ccc(C(C)C)cc4)cc3)c2C1=O)OCC [Compound 68] |  | 6.7 |  |  |  | 6.5 | 2510 | 90 | 2510 | 316 |  |
| CC(C)c1ccc(COc2ccc(-c3c(-c4ccncc4C#N)nn4c3C(=O)NCC4)cc2)cc1 [Compound 153] | 39.8 | 7.5 |  |  |  | 6.8 | 316 | 225 | > 10000 |  |  |
| CNCC1Cn2nc(-c3ccncc3)c(-c3ccc(OCc4ccc(C(C)C)cc4)cc3)c2C(=O)N1 (centres unmarked) [Compound 194] | 79.4 | 6.6 |  |  |  | 6.2 | 501 | 230 | 6310 |  |  |
| CC(C)c1cc(F)c(COc2ccc(-c3c(-c4ccncc4)nn4c3C(=O)N(CCO)CC4)cc2)c(F)c1 [Compound 94] | 100 | 7.0 |  |  |  | 6.6 | 398 | 194 | > 10000 |  |  |
| CC(C)c1ccc(COc2ccc(-c3c(-c4ccncc4)nn4c3C(=O)NCC4)c(C#N)c2)cc1 [Compound 27] | 15.8 | 7.7 |  |  |  | 7.1 | 20 | 268 | > 10000 |  |  |
| CC(C)c1ccc(COc2ccc(-c3c(-c4ccncc4)nn4c3C(=O)N(CC(O)CO)CC4)cc2)cc1 (centres unmarked) [Compound 43] | 50.1 | 7.4 |  |  | > 10000 | 7.3 |  | 190 |  |  | 6.9 |
| COCC(C)(C)c1ccc(COc2ccc(-c3c(-c4ccncc4)nn4c3C(=O)NCC4)cc2)cc1 [Compound 126] | 200 | 6.9 |  |  |  | 6.6 | 1260 | 212 | > 10000 |  |  |
| Cc1cc(-c2c(-c3ccncc3)nn3c2C(=O)NCC3)cc(C)c1OCc1ccc(C(C)C)cc1 [Compound 29] | > 10000 | <5 |  |  |  | <5 | > 10000 | 260 | > 10000 |  |  |
| CC(C)c1ccc(COc2ccc(-c3c(-c4ccncc4)nn4c3C(=O)N(CCO)CC4)c(F)c2F)cc1 [Compound 20] | 100 | 6.9 |  |  |  | 7.0 | 1580 | 138 | > 10000 |  |  |
